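Protocol summary: plate cells (96-well), add compound at 5 concentrations, incubate 48 h, interpolate endpoints linearly. GI50 marks 50% less growth.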 The source made the active and inactive calls. Rule as the data show it: active = GI50 up to about 1.1 µM and inactive = higher.
How the values were obtained:
Experiment in all cases: inhibition of tumour cell growth, NCI panel, 48 h
ACHN = system: ACHN
HCC 2998 = system: HCC 2998
HCT-15 = system: HCT-15
HOP-62 = system: HOP-62
HT-29 = system: HT-29
MDA-MB-231 = system: MDA-MB-231
MDA-MB-435 = system: MDA-MB-435
MDA-N = system: MDA-N
NCI-H460 = system: NCI-H460
NCI-H522 = system: NCI-H522
OVCAR-5 = system: OVCAR-5
OVCAR-8 = system: OVCAR-8
SW-620 = system: SW-620
TK-10 = system: TK-10
UACC-257 = system: UACC-257
UACC-62 = system: UACC-62
UO-31 = system: UO-31
CCRF-CEM = system: CCRF-CEM
LOX IMVI = system: LOX IMVI
SF-539 = system: SF-539

Compound	GI50 (ACHN)	GI50 (HCC 2998)	GI50 (HCT-15)	GI50 (HOP-62)	GI50 (HT-29)	GI50 (MDA-MB-231)	GI50 (MDA-MB-435)	GI50 (MDA-N)	GI50 (NCI-H460)	GI50 (NCI-H522)	GI50 (OVCAR-5)	GI50 (OVCAR-8)	GI50 (SW-620)	GI50 (TK-10)	GI50 (UACC-257)	GI50 (UACC-62)	GI50 (UO-31)	GI50 (CCRF-CEM)	GI50 (LOX IMVI)	GI50 (SF-539)
O=C(NCCC1CN(C(=O)OCc2ccccc2)c2ccccc21)OCc1ccccc1 (stereo not given)	> 100 µM (inactive)	> 100 µM (inactive)	> 100 µM	> 100 µM (inactive)	> 100 µM (inactive)	> 100 µM (inactive)	> 100 µM (inactive)	> 100 µM (inactive)	96.8 µM (inactive)	90.6 µM (inactive)	> 100 µM (inactive)	> 100 µM (inactive)	> 100 µM (inactive)	> 100 µM (inactive)	> 100 µM (inactive)	> 100 µM (inactive)	> 100 µM (inactive)	–	–	–
O=c1nc2ccc3sc4ccccc4c(=O)c3n2c(=O)[nH]1	> 100 µM (inactive)	> 100 µM (inactive)	> 100 µM	> 100 µM (inactive)	> 100 µM (inactive)	> 100 µM (inactive)	> 100 µM (inactive)	> 100 µM (inactive)	> 100 µM (inactive)	73.8 µM (inactive)	> 100 µM (inactive)	> 100 µM (inactive)	> 100 µM (inactive)	66.7 µM (inactive)	> 100 µM (inactive)	–	> 100 µM (inactive)	> 100 µM (inactive)	> 100 µM (inactive)	> 100 µM (inactive)
COc1ccc(/C=C2/N/C(=N\N=C/C(O)C(O)C(O)C(O)CO)NC2=O)cc1 (stereo not given)	> 100 µM (inactive)	> 100 µM (inactive)	> 100 µM	> 100 µM (inactive)	> 100 µM (inactive)	> 100 µM (inactive)	> 100 µM (inactive)	> 100 µM (inactive)	> 100 µM (inactive)	> 100 µM (inactive)	> 100 µM (inactive)	> 100 µM (inactive)	> 100 µM (inactive)	> 100 µM (inactive)	> 100 µM (inactive)	–	> 100 µM (inactive)	53.8 µM (inactive)	> 100 µM (inactive)	> 100 µM (inactive)
CN(C)Cc1cc(/N=N/c2ccc(Cl)cc2)cc(CN(C)C)c1O	6.43 µM (inactive)	10.5 µM (inactive)	6.52 µM	2.58 µM (inactive)	6.62 µM (inactive)	7.71 µM (inactive)	12.2 µM (inactive)	13.2 µM (inactive)	5.15 µM (inactive)	1.77 µM (inactive)	–	3.75 µM (inactive)	8.09 µM (inactive)	5.94 µM (inactive)	16.2 µM (inactive)	13.9 µM (inactive)	1.52 µM (inactive)	2.1 µM (inactive)	3.1 µM (inactive)	10 µM (inactive)
O=S(=O)(c1ccccc1)[C@@H]1[C@H]2C=C[C@](CS)(O2)[C@H]1S(=O)(=O)c1ccccc1	76.9 µM (inactive)	> 100 µM (inactive)	15.2 µM	> 100 µM (inactive)	> 100 µM (inactive)	> 100 µM (inactive)	46.2 µM (inactive)	82.8 µM (inactive)	> 100 µM (inactive)	14.7 µM (inactive)	> 100 µM (inactive)	50.1 µM (inactive)	12.4 µM (inactive)	> 100 µM (inactive)	> 100 µM (inactive)	> 100 µM (inactive)	> 100 µM (inactive)	2.46 µM (inactive)	44.6 µM (inactive)	–
C[N+]1=C2[B-](C(C)(C)C)=[N+](C(C)(C)C)[B-]2(C(C)(C)C)[N+](C)=C2[B-](C(C)(C)C)=[N+](C(C)(C)C)[B-]21C(C)(C)C (stereo not given)	> 100 µM (inactive)	> 100 µM (inactive)	> 100 µM	> 100 µM (inactive)	> 100 µM (inactive)	> 100 µM (inactive)	> 100 µM (inactive)	> 100 µM (inactive)	> 100 µM (inactive)	> 100 µM (inactive)	> 100 µM (inactive)	> 100 µM (inactive)	> 100 µM (inactive)	> 100 µM (inactive)	> 100 µM (inactive)	> 100 µM (inactive)	> 100 µM (inactive)	> 100 µM (inactive)	> 100 µM (inactive)	–
N#CCCC(C=O)(CCC#N)CCC#N	> 100 µM (inactive)	> 100 µM (inactive)	> 100 µM	–	> 100 µM (inactive)	> 100 µM (inactive)	> 100 µM (inactive)	> 100 µM (inactive)	> 100 µM (inactive)	> 100 µM (inactive)	> 100 µM (inactive)	> 100 µM (inactive)	> 100 µM (inactive)	> 100 µM (inactive)	> 100 µM (inactive)	> 100 µM (inactive)	> 100 µM (inactive)	> 100 µM (inactive)	> 100 µM (inactive)	> 100 µM (inactive)
Cc1nn(C(=O)c2ccc(Cl)cc2)c2c1C(c1ccccc1[N+](=O)[O-])SC(=N)N2 (stereo not given)	> 10 µM (inactive)	> 10 µM (inactive)	> 10 µM	> 10 µM (inactive)	> 10 µM (inactive)	> 10 µM (inactive)	> 10 µM (inactive)	> 10 µM (inactive)	> 10 µM (inactive)	> 10 µM (inactive)	> 10 µM (inactive)	> 10 µM (inactive)	> 10 µM (inactive)	> 10 µM (inactive)	> 10 µM (inactive)	> 10 µM (inactive)	–	> 10 µM (inactive)	> 10 µM (inactive)	> 10 µM (inactive)
C=CC(=C)CCC(Br)C(C)(C)Br (stereo not given)	> 100 µM (inactive)	> 100 µM (inactive)	> 100 µM	> 100 µM (inactive)	> 100 µM (inactive)	4.51 µM (inactive)	> 100 µM (inactive)	> 100 µM (inactive)	> 100 µM (inactive)	15.7 µM (inactive)	> 100 µM (inactive)	> 100 µM (inactive)	32.4 µM (inactive)	> 100 µM (inactive)	> 100 µM (inactive)	> 100 µM (inactive)	> 100 µM (inactive)	22.2 µM (inactive)	–	> 100 µM (inactive)
O=c1cc(-c2cccnc2)[nH]c2cc3c(cc12)OCO3	13.6 µM (inactive)	7.4 µM (inactive)	3.9 µM	7.5 µM (inactive)	6.59 µM (inactive)	29.6 µM (inactive)	1.84 µM (inactive)	2.29 µM (inactive)	10.8 µM (inactive)	–	> 100 µM (inactive)	12.9 µM (inactive)	6.38 µM (inactive)	41.6 µM (inactive)	> 26.5 µM (inactive)	3.3 µM (inactive)	44.4 µM (inactive)	6.65 µM (inactive)	4.67 µM (inactive)	5.58 µM (inactive)
O=CC12CCCN1CCC2	> 100 µM (inactive)	> 100 µM (inactive)	> 100 µM	> 100 µM (inactive)	> 100 µM (inactive)	> 100 µM (inactive)	> 100 µM (inactive)	> 100 µM (inactive)	> 100 µM (inactive)	> 100 µM (inactive)	> 100 µM (inactive)	–	> 100 µM (inactive)	> 100 µM (inactive)	> 100 µM (inactive)	> 100 µM (inactive)	> 100 µM (inactive)	> 100 µM (inactive)	> 100 µM (inactive)	–
C=CCOC(=O)C1C2OC3(C(C(=O)OC)=C2C(=O)OC)c2ccccc2CCC13 (stereo not given)	> 10 µM (inactive)	> 10 µM (inactive)	> 10 µM	> 10 µM (inactive)	> 10 µM (inactive)	> 10 µM (inactive)	> 10 µM (inactive)	> 10 µM (inactive)	> 10 µM (inactive)	–	> 10 µM (inactive)	> 10 µM (inactive)	> 10 µM (inactive)	> 10 µM (inactive)	> 10 µM (inactive)	> 10 µM (inactive)	> 10 µM (inactive)	> 10 µM (inactive)	> 10 µM (inactive)	> 10 µM (inactive)
CCCCCCCCC/C=C1\CC(CO)(COC(=O)C2CCCCC2)OC1=O (stereo not given)	20 µM (inactive)	23.7 µM (inactive)	23.2 µM	13.4 µM (inactive)	19.7 µM (inactive)	19.7 µM (inactive)	13.5 µM (inactive)	16.7 µM (inactive)	14.5 µM (inactive)	18.3 µM (inactive)	17.8 µM (inactive)	15.8 µM (inactive)	18.4 µM (inactive)	21.3 µM (inactive)	27.4 µM (inactive)	21.5 µM (inactive)	20.1 µM (inactive)	12.9 µM (inactive)	11.8 µM (inactive)	–
OCCNc1ncnc2[nH]cnc12	> 100 µM (inactive)	> 100 µM (inactive)	> 100 µM	> 100 µM (inactive)	> 100 µM (inactive)	> 100 µM (inactive)	> 100 µM (inactive)	> 100 µM (inactive)	> 100 µM (inactive)	> 100 µM (inactive)	> 100 µM (inactive)	> 100 µM (inactive)	> 100 µM (inactive)	> 100 µM (inactive)	> 100 µM (inactive)	> 100 µM (inactive)	> 100 µM (inactive)	–	> 100 µM (inactive)	–
COc1c2c(cc3oc(=O)ccc13)OC(C)(C)C=C2 [XANTHOXYLETIN]	27.9 µM (inactive)	18.7 µM (inactive)	23.6 µM	34.9 µM (inactive)	35.8 µM (inactive)	19.5 µM (inactive)	27.2 µM (inactive)	29.4 µM (inactive)	24.2 µM (inactive)	21 µM (inactive)	–	24.2 µM (inactive)	26.1 µM (inactive)	30.9 µM (inactive)	31.7 µM (inactive)	22.6 µM (inactive)	25.8 µM (inactive)	–	21.8 µM (inactive)	36.6 µM (inactive)

— ChEMBL document CHEMBL1201862, “PubChem BioAssay data set” (2004)
